Experimental data reported in patent US10597388B2, “Pyridazinone herbicides” (FMC CORPORATION, priority 2014, dated 2020).

Assays:
Assay in all cases: Test D controlled growth environment herbicide test, pre- and postemergence
Format in all cases: in vivo
[1] = system: barley, spring (spring barley, Hordeum vulgare)
Method in brief: (§1)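 Species sown in silt loam and sprayed preemergence, or grown in peat-based medium to 2–18 cm (1- to 4-leaf stage) and sprayed postemergence, with compounds in non-phytotoxic solvent plus surfactant. Visual injury scored versus controls after 14–21 d in a controlled environment, 0 (no effect) to 100 (complete control).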

[2] = system: barley, winter (winter barley, Hordeum vulgare)
Method in brief: as §1

[3] = system: bluegrass (annual bluegrass, Poa annua)
Method in brief: as §1

[4] = system: buckwheat, wild (wild buckwheat, Polygonum convolvulus)
Method in brief: as §1

[5] = system: canarygrass (Phalaris minor)
Method in brief: as §1

[6] = system: chamomile (scentless chamomile, Matricaria inodora)
Method in brief: as §1

[7] = system: field poppy (Papaver rhoeas)
Method in brief: as §1

[8] = system: field violet (Viola arvensis)
Method in brief: as §1

[9] = system: galium (catchweed bedstraw, Galium aparine)
Method in brief: as §1

kochia (Kochia scoparia) = system: kochia (Kochia scoparia)
Method in brief: as §1

[10] = system: lambsquarters (Chenopodium album)
Method in brief: as §1

[11] = system: pigweed (Amaranthus retroflexus)
Method in brief: as §1

[12] = system: radish, wild (wild radish, Raphanus raphanistrum)
Method in brief: as §1

[13] = system: windgrass (Apera spica-venti)
Method in brief: as §1

[14] = Postemergence, 31 g ai/ha, scale 0 to 100 (0 no effect, 100 complete control)
[15] = Postemergence, 125 g ai/ha, visual rating on scale 0 (no effect) to 100 (complete control), 14 to 21 d
[16] = Postemergence, 250 g ai/ha, scale 0 to 100 (0 no effect, 100 complete control)
[17] = Preemergence, 62 g ai/ha, scale 0 to 100 (0 no effect, 100 complete control)
[18] = Preemergence, 125 g ai/ha, scale 0 to 100 (0 no effect, 100 complete control)
[19] = Preemergence, 250 g ai/ha, scale 0 to 100, 0 no effect, 100 complete control
[20] = postemergence, 62 g ai/ha, scale 0 to 100, 0 no effect, 100 complete control

Cc1ccc2sc(Br)c(-c3c(O)c(C)nn(C)c3=O)c2c1 [Compound 79]
Barley, Spring plant response rating [1, 14]: 0
Plant response rating, Barley, Spring [1, 15]: 5
Plant response rating, Barley, Spring [1, 16]: 10
Plant response rating (scale of 0 to 100), Barley, Spring ([1]; Preemergence, 31 g ai/ha): 0
Plant response rating, Barley, Spring [1, 17]: 0
Plant response rating, Barley, Spring [1, 18]: 0
Plant response rating, Barley, Spring [1, 19]: 0
Plant response rating, Barley, Spring [1, 20]: 5
Barley, Winter plant response rating [2, 14]: 0
Plant response rating, Barley, Winter [2, 15]: 0
Plant response rating, Barley, Winter [2, 16]: 5
Plant response rating (scale of 0 to 100), Barley, Winter ([2]; Preemergence, 31 g ai/ha): 0
Plant response rating, Barley, Winter [2, 17]: 0
Plant response rating, Barley, Winter [2, 18]: 0
Plant response rating, Barley, Winter [2, 19]: 10
Plant response rating, Barley, Winter [2, 20]: 0
Bluegrass plant response rating [3, 14]: 5
Plant response rating, Bluegrass [3, 15]: 10
Plant response rating, Bluegrass [3, 16]: 15
Plant response rating (scale of 0 to 100), Bluegrass ([3]; Preemergence, 31 g ai/ha): 10
Plant response rating, Bluegrass [3, 17]: 10
Plant response rating, Bluegrass [3, 18]: 25
Plant response rating, Bluegrass [3, 19]: 35
Plant response rating, Bluegrass [3, 20]: 10
Buckwheat, Wild plant response rating [4, 14]: 70
Plant response rating, Buckwheat, Wild [4, 15]: 100
Plant response rating, Buckwheat, Wild [4, 16]: 100
Plant response rating (scale of 0 to 100), Buckwheat, Wild ([4]; Preemergence, 31 g ai/ha): 0
Plant response rating, Buckwheat, Wild [4, 17]: 90
Plant response rating, Buckwheat, Wild [4, 18]: 25
Plant response rating, Buckwheat, Wild [4, 19]: 100
Plant response rating, Buckwheat, Wild [4, 20]: 100
Canarygrass plant response rating [5, 14]: 5
Plant response rating, Canarygrass [5, 15]: 40
Plant response rating, Canarygrass [5, 16]: 45
Plant response rating (scale of 0 to 100), Canarygrass ([5]; Preemergence, 31 g ai/ha): 45
Plant response rating, Canarygrass [5, 17]: 60
Plant response rating, Canarygrass [5, 18]: 75
Plant response rating, Canarygrass [5, 19]: 85
Plant response rating, Canarygrass [5, 20]: 20
Chamomile plant response rating [6, 14]: 85
Plant response rating, Chamomile [6, 15]: 100
Plant response rating, Chamomile [6, 16]: 100
Plant response rating, Chamomile [6, 20]: 95
Field Poppy plant response rating [7, 14]: 75
Plant response rating, Field Poppy [7, 15]: 95
Plant response rating, Field Poppy [7, 16]: 98
Plant response rating (scale of 0 to 100), Field Poppy ([7]; Preemergence, 31 g ai/ha): 100
Plant response rating, Field Poppy [7, 17]: 100
Plant response rating, Field Poppy [7, 18]: 100
Plant response rating, Field Poppy [7, 19]: 100
Plant response rating, Field Poppy [7, 20]: 85
Field Violet plant response rating [8, 14]: 75
Plant response rating, Field Violet [8, 15]: 85
Plant response rating, Field Violet [8, 16]: 95
Plant response rating (scale of 0 to 100), Field Violet ([8]; Preemergence, 31 g ai/ha): 80
Plant response rating, Field Violet [8, 17]: 85
Plant response rating, Field Violet [8, 18]: 98
Plant response rating, Field Violet [8, 19]: 100
Plant response rating, Field Violet [8, 20]: 75
Galium plant response rating [9, 14]: 95
Plant response rating, Galium [9, 15]: 100
Plant response rating, Galium [9, 16]: 100
Plant response rating (scale of 0 to 100), Galium ([9]; Preemergence, 31 g ai/ha): 80
Plant response rating, Galium [9, 17]: 90
Plant response rating, Galium [9, 18]: 100
Plant response rating, Galium [9, 19]: 100
Plant response rating, Galium [9, 20]: 100
Kochia plant response rating (kochia (Kochia scoparia); [14]): 70
Plant response rating, Kochia (kochia (Kochia scoparia); [15]): 85
Plant response rating, Kochia (kochia (Kochia scoparia); [16]): 95
Plant response rating (scale of 0 to 100), Kochia (kochia (Kochia scoparia); Preemergence, 31 g ai/ha): 60
Plant response rating, Kochia (kochia (Kochia scoparia); [17]): 55
Plant response rating, Kochia (kochia (Kochia scoparia); [18]): 100
Plant response rating, Kochia (kochia (Kochia scoparia); [19]): 95
Plant response rating, Kochia (kochia (Kochia scoparia); [20]): 80
Lambsquarters plant response rating [10, 14]: 85
Plant response rating, Lambsquarters [10, 15]: 90
Plant response rating, Lambsquarters [10, 16]: 100
Plant response rating (scale of 0 to 100), Lambsquarters ([10]; Preemergence, 31 g ai/ha): 100
Plant response rating, Lambsquarters [10, 17]: 100
Plant response rating, Lambsquarters [10, 18]: 100
Plant response rating, Lambsquarters [10, 19]: 100
Plant response rating, Lambsquarters [10, 20]: 80
Pigweed plant response rating [11, 14]: 100
Plant response rating, Pigweed [11, 15]: 100
Plant response rating, Pigweed [11, 16]: 100
Plant response rating (scale of 0 to 100), Pigweed ([11]; Preemergence, 31 g ai/ha): 45
Plant response rating, Pigweed [11, 17]: 100
Plant response rating, Pigweed [11, 18]: 100
Plant response rating, Pigweed [11, 19]: 100
Plant response rating, Pigweed [11, 20]: 100
Radish, Wild plant response rating [12, 14]: 0
Plant response rating, Radish, Wild [12, 15]: 0
Plant response rating, Radish, Wild [12, 16]: 65
Plant response rating (scale of 0 to 100), Radish, Wild ([12]; Preemergence, 31 g ai/ha): 25
Plant response rating, Radish, Wild [12, 17]: 25
Plant response rating, Radish, Wild [12, 18]: 45
Plant response rating, Radish, Wild [12, 19]: 55
Plant response rating, Radish, Wild [12, 20]: 0
Windgrass plant response rating [13, 14]: 15
Plant response rating, Windgrass [13, 15]: 35
Plant response rating, Windgrass [13, 16]: 65
Plant response rating (scale of 0 to 100), Windgrass ([13]; Preemergence, 31 g ai/ha): 25
Plant response rating, Windgrass [13, 17]: 40
Plant response rating, Windgrass [13, 18]: 50
Plant response rating, Windgrass [13, 19]: 80
Plant response rating, Windgrass [13, 20]: 20
